Series [1] deals with T1, adrenergic α-2 receptors (Homo sapiens, UniProt P08913).
T1 sequence (P08913 1-465): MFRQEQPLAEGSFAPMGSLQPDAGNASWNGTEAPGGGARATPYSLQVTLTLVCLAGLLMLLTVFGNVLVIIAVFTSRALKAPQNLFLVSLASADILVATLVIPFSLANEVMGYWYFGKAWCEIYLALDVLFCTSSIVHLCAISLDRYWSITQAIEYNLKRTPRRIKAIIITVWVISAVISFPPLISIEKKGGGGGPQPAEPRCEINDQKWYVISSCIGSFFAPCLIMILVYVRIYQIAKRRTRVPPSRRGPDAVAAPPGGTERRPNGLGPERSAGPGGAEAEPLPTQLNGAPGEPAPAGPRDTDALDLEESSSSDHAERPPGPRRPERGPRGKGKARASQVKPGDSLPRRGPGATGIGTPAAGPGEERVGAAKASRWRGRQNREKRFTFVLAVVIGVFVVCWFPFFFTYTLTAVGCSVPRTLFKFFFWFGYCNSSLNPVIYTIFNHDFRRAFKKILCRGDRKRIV
Particulars: HEL cells; for antagonism of receptor activation to UK 14,304 by prior administration: intracellular Ca2+, 10 μM UK 14,304, 10 μM I-medetomidine, 1 μM rauwolscine. The text has this: This system was used to screen different adrenergic α-2 receptor agonists for functional purposes.
The cells were loaded with fura-2/AM (Molecular probes, Junction City, USA). […] The dye responses were calibrated by sequential addition of digitonin and EGTA at the end of the experiment to obtain maximal and minimal fluorescence values, respectively.

Series [2] addresses T1, adrenergic α-2 receptors. Description: cell-based. The arrangement: This cell line has been used as a model system for studying adrenergic α-2 receptors; endogenous in cells; host or cells: HEL (human erythroleukemia) cells. As to the method: The intracellular concentration of cAMP was measured by prelabelling the cells with [^3 H]adenine (Amersham, UK) as described by Jansson et al (1985, Eur. J. Pharmacol. […], 165). Separation of [^3 H]ATP and [^3 H]cAMP was achieved by the method of Salomon et al. (1974, Anal. Biochem. 58, 541). Conversion of cell-associated [^3 H]ATP to [^3 H]cAMP was expressed as a percentage of the total radioactivity and normalized to the percentage recovery of [^14 C]cAMP tracer.

For `Cc1cccc([C@@H](C)c2cnc[nH]2)c1C` [I-medetomidine, Levomedetomidine], the “decrease of the concentration of Ca2+ level” value on adrenergic α-2 receptors [1] (10 μM compound) is -17 ± 2 nM. The “antagonism of receptor activation to UK 14,304 by prior administration” value at adrenergic α-2 receptors [1] is listed as “did not antagonise receptor activation to UK”. For the same molecule, the activation at 10 µM on adrenergic α-2 receptors [2] (HEL, read-out: further stimulation of forskolin stimulated cAMP production) was 42 ± 27%.

For the molecule `COC(=O)[C@H]1[C@H]2C[C@H]3c4[nH]c5ccccc5c4CCN3C[C@H]2CC[C@@H]1O` [rauwolscine, reference compound], the “antagonism of receptor activation to UK 14,304 by prior administration” value at adrenergic α-2 receptors [1] is given as “did”.

For the molecule `C=C[C@@]1(C)CC(=O)[C@]2(O)[C@@]3(C)[C@@H](O)CCC(C)(C)[C@@H]3[C@H](O)[C@H](OC(C)=O)[C@@]2(C)O1` [forskolin, reference compound], the “increase in the production of cAMP” value at adrenergic α-2 receptors [2] (hel cells) was 10 fold.

Source of the values: patent US5994384A, “Pharmaceutical compositions of levo-enantiomers of medetomidine derivatives and their use” (Orion Corporation, priority 1995, dated 1999).
